# Patent US10953071B2, “Compositions and methods for treatment of intracellular damage and bacterial infection” (priority 2011, dated 2021)
# “Also recorded” adds a separate entry of the source. Read-outs that look alike come from different tables or passages of the source.
# Assays:
# [1] = test system: bone marrow derived phagocytes exposed to Mtb; format: cell-based, mouse
# ApoE−/− mice = test: Atherosclerosis model, ApoE−/− mice fed high fat Western diet; format: in vivo, mouse
# Procedure: Aortic root and arch sections were stained with HE. The mean atherosclerotic area (μm2)±SEM was quantified.
# ORO histology was employed to identify lipids in the mouse atherosclerotic plaque. Lipids were quantified by red signal intensity percentage area of plaque±SEM. […] All animals still had very high cholesterol levels and to obtain a reading, the plasma was diluted to 1:10. After analysis, no statistical difference was seen between any group using one way ANOVA paired with Tukey's Multiple Comparison Test. […]
# Treatments were administered via 150 μL i.p. injection every 3rd day, for a total of 7 weeks.
# Ca++ mobilization = test system: Ca++ mobilization
# Procedure: FITC-sPIF binding to PBMCs subsets was determined using flow cytometry. sPIF's effect on Ca++ mobilization was tested by Flex station.
# [2] = test system: stimulated human T lymphocytes; test: Cytokine production by anti-CD3/CD28 stimulated human mononuclear cells with Kv1.3 and IDE inhibitors; format: cell-based
# Procedure: Peripheral blood was obtained from two healthy donors. Mononuclear cells were purified by Ficol-Hypaque centrifugation. […] The culture supernatants were collected 24 hours post-treatment and were assayed for eleven Th1/Th2 cytokines using a multiplex system (Bender, Cat. No. BMS810FF): IL-1beta, IL-2, IL-4, IL-5, IL-6, IL-8, IL-10, IL-12p70, TNF-alpha, TNF-beta, IFN-gamma.
# THP-1 cells [3] = test system: THP-1 cells
# C57bl6 mice = conditions: 0.3 nmol/g i.p.
# Procedure: Peritonitis was induced by injecting 3 ml 4% thioglycolate i.p. and after 20 hours, the mice were anaesthetized and the peritoneal cavity was flushed with 5 ml sterile PBS. Subsequently, monocytes/macrophages were quantified with F4/80 and CD11b in flow cytometry.
# Peritonitis was induced by injecting 3 ml 4% thioglycolate i.p. and after 20 hours, the mice were anaesthetized and the peritoneal cavity was flushed with 5 ml sterile PBS. Subsequently, monocytes and macrophages were quantified with F4/80 and CD11b in flow cytometry.
# B7-H1 = conditions: 200 nM PIF, 10 days, IFN γ at day 7
# Procedure: (§1) Mouse splenocytes were used for mixed Lymphocytes Reaction (MLR). Balb/c cells were cultured in the presence of irradiated C57/Bl cells for 4 days. […] Cell proliferation was tested by H3 Tymidine uptake assay. […] One representative experiment is shown out of four performed. […] Anti-CD3 antibodies were added to the medium for T cell activation. Cell proliferation was tested by H3 Thymidine uptake. […] At day 7, 100 ng/ml IFN γ was added. After 10 days cells were analyzed by FACS analysis using anti-B7-H1 antibodies. FIG. 2D illustrates murine macrophages were cultured with GM-CSF for 10 days. IFN-γ was added to the culture at day 7 for cell activation. […] This is relevant since B7-H1 is one of the newly defined inhibitory B7 family molecules. It is known that IFN gamma potently stimulates B7-H1 expression on APC. […] THP-1 cells were incubated for 48 hours, then were stimulated with […] and collected at 0, 1, 8, 12 and 24 hour time points. […] The 8 hour time point was selected to allow time for cell stimulation. The gene regulation comes quickly and the selected time point allows enough time for stimulation and not over/under. […] In the last 24 hours of the experiment, LPS was added to the culture for cell activation. Greiss reagent test was performed to detect NO secretion to the supernatant.
# T cells = conditions: monocytes 10 days with 200 nM PIF, co-culture 4 days, anti-CD3
# Procedure: as §1
# THP-1 cells [4] = test system: THP-1 cells; remark: listed apart in the source
# Procedure: as §1
# [5] = test system: Balb/c splenocytes with irradiated C57/Bl cells; conditions: 4 days; 150 nM and 200 nM PIF significant
# Procedure: as §1
# [6] = Surface Plasmon Resonance, LPS binding to PIF-labeled sensor surface; parameters: species or system E. coli; conditions: LPS 5, 25 and 100 μM, immobilized peptide, preliminary results
# Procedure: Surface Plasmon Resonance spectroscopy (SPR) was used to evaluate LPS and LPS receptors binding (TLR4-MD2 and CD14) to the PIF-labeled sensor surface. Two chemotypes of LPS (From E. coli O55:B5 and E. coli EH100) at 3 concentrations (5, 25 and 100 μM) were tested.
# Nos2 = conditions: mouse, in vivo
# [7] = test system: RAW (Macrophage cell line); conditions: PIF 200 nM, 2 or 5 day incubation, no LPS
# Procedure: as §1
# In the last 24 hours of the experiment, LPS was added to the culture for cell activation. […]
# PBMCs = test: Cytokine secretion of naïve and stimulated PBMCs; format: cell-based, human; conditions: for TH2 and TH1 cytokines secretion in activated PBMCs: anti-CD3 or anti-CD3/anti-CD28 stimulation
# Procedure: FIG. 3A and FIG. 3B illustrate that mitogen stimulation enhances FITC-PIF binding to T and B cell populations. PBMC were cultured with PHA for 24 h. Binding of FITC-PIF to different PBMC populations was determined by two color flow cytometry. Binding was low (<10% in unstimulated cells a, upper panel from left to right) CD4+, CD8+, NK, (CD56+) and B (CD19+) cells. However, it led to a ˜30-fold increase in binding to b (lower panel from left to right), CD4+, CD8+ and B (CD19+) cells. Binding was unchanged for NK cells, even after a 72 hour incubation period. FIG. 3C, FIG. 3D, FIG. 3E, and FIG. 3F illustrate that sPIF promotes TH2/TH1 cytokine bias in stimulated PBMCs. […] FIG. 3B illustrates sPIF (50 nM); FIG. 3C illustrates PIFscr (50 nM); FIG. 3D illustrates sPIF (50 nM)+anti-CD3 mAb; FIG. 3E illustrates PIFscr+anti-CD3 mAb. sPIF affected variably stimulated PBMCs individual cytokines secretion. In contrast, some cytokine secretion in naïve PBMCs decreased (not shown). […] Cytokine secretion determined by Luminex 10-plex. […] PBMCs were cultured in the presence of anti-CD3/anti-CD28-Mab for 24-48 hours. […] The effect on PBMCs at 48 hours was less pronounced (data not shown). At the end of experiment mRNA was extracted and global gene expression was analyzed by using an Affymetrix chip.
substance,measurement,setting,value
IFNγ: phagocyte-activating cytokine,"IL-1a, IL-1b, TNFa, MIP-1alpha and KC response to Mtb, PIF and anti-Kv1.3, effect of IFN",[1],lost
same,"MCP-1, IL-6 and IL-5 response to Mtb and PIF, effect of IFN",[1],stopped
MVRIKPGSANKPSDD [PIF],"MCP-1, IL-6 and IL-5 induction by Mtb, effect of PIF",[1],further induced; also recorded: augmented
same,MCP-1 secretion by isolated macrophages,[1],increased
same,"MIG and IP10 chemokines, effect of PIF",[1],modestly augmented
same,"TNF, IL-1a, IL-1b, IL-6, MCP-1, MIP1a and KC response of BMDCs to Mtb",[1],increased
same,"TNF, IL-1α, IL-1β, MIP1α and KC induction by Mtb, effect of PIF",[1],augmented
same,VEGF and FGFb (growth factors) in BMDCs exposed to Mtb,[1],augmented
same,"VEGF and FGFβ induction by Mtb, effect of PIF",[1],promoted; also recorded: augmented
same,reduction of plaque area in the aortic root compared to PBS control,"ApoE−/− mice; PIF 0.1 mg/kg/day, i.p.",30%
same,plaque area of the aortic arch compared to both doses of scrPIF,ApoE−/− mice; PIF 1 mg/kg/day,reduction
same,reduction of plaque area in the aortic root compared to PBS control,"ApoE−/− mice; PIF 1 mg/kg/day, i.p.",46%
same,reduction of plaque area of the aortic arch compared to PBS control,"ApoE−/− mice; PIF 1 mg/kg/day, i.p.",43%
same,plaque area in the aortic root compared to both doses of scrPIF,ApoE−/− mice; higher dose of PIF (1 mg/kg/day),statistically significantly reduced
same,CD68 in the aortic root and arch,"ApoE−/− mice; mouse, in vivo",reduces
same,MCP-1 in the aortic root and arch,"ApoE−/− mice; mouse, in vivo",reduces
same,VCAM-1 in the aortic root and arch,"ApoE−/− mice; mouse, in vivo",reduces
same,atherosclerosis formation (protective effect),"ApoE−/− mice; mouse, in vivo",reduces
same,lipids (Oil Red O staining) in the aortic root and arch,"ApoE−/− mice; mouse, in vivo",reduces
same,action through Ca++ mobilization,Ca++ mobilization,does not act through Ca++ mobilization
same,"Th1/Th2 cytokine analytes, PIF alone","[2]; PIF 1, 10 and 50 nM, no stimulation, 24 hours",no effect
same,binding to intracellular insulin degrading enzyme (IDE),[2]; concluded from cell based assay using specific IDE inhibitor,bind
same,MCP-1 induced transmigration of THP-1 cells,THP-1 cells [3]; PIF 1 μM,significantly reduced
same,MCP-1 induced transmigration of THP-1 cells,THP-1 cells [3]; PIF 10 μM,significantly reduced
same,MCP-1 induced monocyte migration in mouse peritonitis model,C57bl6 mice,inhibits
same,B7-H1 expression,B7-H1,up-regulates
same,B7-H1 expression,B7-H1; listed as sPIF,significantly increased
same,T cell proliferation with PIF-treated monocytes,T cells,reduced proliferation but did not block it
same,"VCAM-1, IL-12b and IFNg in THP-1 cells",THP-1 cells [4],reduced
same,allogenic lymphocyte proliferation in MLR,[5],reduce cells proliferation in a dose dependent manner
same,binding to LPS chemotypes (SPR),[6],no apparent LPS binding
same,elevation of Nos2 expression in liver of semi-allogenic BMT mice,Nos2,completely prevented
same,baseline NO,[7],did not affect
same,anti-CD3-Mab-stimulated proliferation and mixed lymphocyte reaction,human PBMCs,blocked
same,TH2 and TH1 cytokines secretion in activated PBMCs,PBMCs,increased
same,TH2 and TH1 cytokines secretion in activated PBMCs,PBMCs; listed as sPIF,promotes
same,"TH1 (TNF-α, IL2) cytokines in naïve PBMCs",PBMCs; naïve PBMCs,reduces
same,"cytokine secretion, PIF alone","PBMCs; without TCR stimulation, 24-48 hours",no significant promoting effect
